From ChEMBL document CHEMBL1133036, “Diacylglycerols with lipophilically equivalent branched acyl chains display high affinity for protein kinase C (PK-C). A direct measure of the effect of constraining the glycerol backbone in DAG lactones” (Bioorg Med Chem Lett, 2000)

Assay: Partition coefficient (logD)
Format: physicochemical
Conditions: octanol/water

| SMILES | logD |
| --- | --- |
| CC(C)(C)C(=O)OCC(CO)OC(=O)C(C)(C)C (stereo unspecified) | 2 |
| CC(C)C(CC(=O)OC[C@H](CO)OC(=O)CC(C(C)C)C(C)C)C(C)C | 5 |
| CC(C)C(C/C=C1/CC(CO)(COC(=O)CC(C(C)C)C(C)C)OC1=O)C(C)C (stereo unspecified) | 5 |
| O=C(OC[C@H](CO)OC(=O)C12CC3CC(CC(C3)C1)C2)C12CC3CC(CC(C3)C1)C2 | 5 |
| CCCCCCCC(=O)OC[C@H](CO)OC(=O)CCCCCCC | 5 |
| CCCCCCCC/C=C/CCCCCCCC(=O)O[C@@H](CO)COC(C)=O [AUTONOM NAME:] | 7 |
